We go through ten compounds from US20220105054A1, “ABSORPTION ENHANCER OF CINNAMIC ACID DERIVATIVE” (YAMADA BEE COMPANY, INC., priority 2020, published 2022).

For the data set the following is noted: rat, in vivo; for AUC Mean ± SD / Cmax Mean ± SD: po, 50 mg/kg. How it is done:
The following administration liquids were prepared. 10% propylene glycol: a propylene glycol liquid having a concentration of 10% was prepared by diluting propylene glycol with distilled water.
Propolis solution: the required amount of propolis powder (Brazilian green propolis) was weighed and ground in a mortar, and the 10% propylene glycol was added to dissolve the powder to prepare a propolis solution with a concentration of 25 mg/mL as the propolis concentration.
Curcumin suspension: the required amount of curcumin powder (C. longa extract (ethyl acetate extract powder, curcumin content of 95% by mass)) was weighed and ground in a mortar, and then the 10% propylene glycol was added to suspend the powder to prepare a curcumin suspension with a curcumin concentration of 100 mg/mL.
Eighteen 7-week-old male rats (Slc: Wistar/ST, SPF, Japan SLC, Inc.) were acclimated for 7 days. The rats were allowed to freely ingest the solid feed CRF-1 (Oriental Yeast Co., ltd.). The rats were fasted for 8 to 10 hours before the administration of the administration liquids. The rats were divided into three groups of six rats each by a stratified allocation method using EXSUS (Version 10.0.0, EP Croit Co., Ltd.) so that the weight of each group was equal.
In the propolis group, the propolis solution was administered immediately after the administration of 10% propylene glycol. In the propolis+curcumin A group, the propolis solution was administered immediately after the administration of the curcumin suspension. In the propolis+curcumin B group, the propolis solution was administered about 30 minutes after the administration of the curcumin suspension. The administration was carried out in a volume of 2 ml/kg rat body weight for each administration solution. In other words, 50 mg of propolis and 200 mg of curcumin were administered per 1 kg of rat body weight. The administration was carried out under no anesthesia by using a syringe (Terumo Corporation) and an oral feeding needle for rats (Fuchigami Kikai, Ltd).
Blood collection of rats was carried out once 30 minutes before the administration of propolis solution (but before the administration of curcumin suspension in the group with the curcumin suspension administrated) and 0.5, 1, 1.5, 2, 3, 6, 9, and 24 hours after the administration of propolis solution. At each blood sampling time, the tail of rats was disinfected with 70% ethanol under no anesthesia, and then the tip of the tail was cut with a razor to collect about 150 μL of leaking blood by using a hematocrit tube (Fisher Scientific 22-362-566). Nine hours after administration of the propolis solution, feeding was resumed for all fasting animals.
The blood, which had been stored in ice after collection, was centrifuged (1600 ×g, 10 min, 4° C.) using a micro high-speed cooling centrifuge (model MX-100: Tomy Seiko Co., Ltd.) to collect plasma from the blood. The plasma was frozen and stored in a −80° C. freezer.
The concentrations of p-coumaric acid, artepillin C, drupanin, culifolin, capillartemisin A, 3,4-dihydroxy-5-prenyl-(E)-cinnamic acid, and 2,2-dimethylchromene-6-(E)-propenoic acid, kaempferide, 6-methoxy kaempferide, and dihydro kaempferide in the resulting plasma were quantified by LCMS.
For each ingredient, the maximum blood concentration (Cmax) and the area under the curve (AUC) were calculated from the resulting concentrations. AUC is an indicator of the total amount of each ingredient absorbed into the body. […] The ratio in the table indicates the ratio of the mean value of the propolis+curcumin A group to that of the propolis group. Statistics were carried out by t-test.

Like-named read-outs stand apart in the source and are kept apart here.

Turning to `CC1(C)C=Cc2cc(/C=C/C(=O)O)ccc2O1` [2,2-dimethylchromene-6-(E)-propenoic acid], the “AUC Ratio” value came to 1.27, the “Cmax Ratio” value was 1.56, the “AUC Mean ± SD” value was found to be 84.5 ± 4.49 and the “Cmax Mean ± SD” value stood at 18.48 ± 4.02.
In the case of `CC(C)=CCc1cc(/C=C/C(=O)O)cc(CC=C(C)C)c1O` [Artepillin C], the “AUC Ratio” value is recorded as 1.39, the “Cmax Ratio” value was 1.7, the “AUC Mean ± SD” value is 811.33 ± 191.31 and the “Cmax Mean ± SD” value came out at 77.7 ± 13.11.
In the case of `COc1ccc(C2Oc3cc(O)cc(O)c3C(=O)C2O)cc1` (stereo not shown) [dihydro kaempferide, reference compound], the “increase in absorption compared to the propolis group” value (“increase in absorption” for short) is reported as “no significant increase in absorption was observed”.
With `CC(C)=CCc1cc(/C=C/C(=O)O)cc2c1OC(C)(C)C=C2` [Culifolin], the “AUC Ratio” value was determined as 1.26, the “Cmax Ratio” value stood at 1.34, the “AUC Mean ± SD” value was 1088.92 ± 68.35 and the “Cmax Mean ± SD” value turned out to be 68.98 ± 5.16.
On to `CC(C)=CCc1cc(/C=C/C(=O)O)cc(C/C=C(\C)CO)c1O` [Capillartemisin A], for which the “AUC Ratio” value is 1.83, the “Cmax Ratio” value was determined as 1.91, the “AUC Mean ± SD” value was 109.74 ± 12.25 and the “Cmax Mean ± SD” value is listed as 10.39 ± 2.01.
In the case of `COc1ccc(-c2oc3cc(O)c(OC)c(O)c3c(=O)c2O)cc1` [6-methoxy kaempferide, reference compound], the “increase in absorption” value is reported as “no significant increase in absorption was observed”.
As to `CC(C)=CCc1cc(/C=C/C(=O)O)ccc1O` [Drupanin], the “AUC Ratio” value was 1.41, the “Cmax Ratio” value stood at 1.98, the “AUC Mean ± SD” value turned out to be 486.19 ± 34.29 and the “Cmax Mean ± SD” value came to 93.12 ± 19.93.
Take `COc1ccc(-c2oc3cc(O)cc(O)c3c(=O)c2O)cc1` [kaempferide, reference compound]: the “increase in absorption” value was “no significant increase in absorption was observed”.
Turning to `O=C(O)/C=C/c1ccc(O)cc1` [p-Coumaric acid], the “AUC Mean ± SD” value is given as 983.44 ± 372.02 and the “Cmax Mean ± SD” value stood at 343.72 ± 41.6. For the setting “male, Slc: Wistar/ST”, the “AUC Ratio” value amounted to 1.07 and the “Cmax Ratio” value is 1.42.
For the compound `CC(C)=CCc1cc(/C=C/C(=O)O)cc(O)c1O` [3,4-dihydroxy-5-prenyl-(E)-cinnamic acid], the “AUC Mean ± SD” value is recorded as 51.02 ± 28.27 and the “Cmax Mean ± SD” value amounted to 7.5 ± 7.5. In addition, where the note is “male, Slc: Wistar/ST”, the “AUC Ratio” value came out at 1.25 and the “Cmax Ratio” value is 1.53.
